Where two headings read alike, the source gives them in different places.
How the values were obtained:
[1] = Microsomal assay: stability in human liver microsomes; assay type: in vitro ADME; details: for half-life at 1 μM: liver microsomes
Protocol: Microsomal Assay. Human liver microsomes (20 mg/mL, pool of 50 individuals) were obtained from Xenotech LLC (Lenexa, Kans.). The incubation mixtures are prepared as follows. Stock solutions (10 mM) solutions of test Compounds 103, 106, 122 and of atazanavir were prepared in DMSO. The 10 mM stock solutions were diluted to 1 mM in acetonitrile (ACN). […] The microsome-test compound mixtures were added to wells of a 2 mL 96-well deep well polypropylene plate in triplicate. The plate was warmed to 37° C. before initiating the reactions by addition of prewarmed NADPH in 0.1 M potassium phosphate buffer, pH 7.4, containing 3 mM MgCl2. The final reaction mixture composition contained: • Liver Microsomes 0.5 mg/mL • NADPH 2 mM • Potassium Phosphate, pH 7.4 100 mM • Magnesium Chloride 3 mM • Test Compound 1.0 μM. The reaction mixtures were incubated at 37° C. and 50 μL aliquots were removed at 0, 3, 7, 12, 20, and 30 minutes and added to shallow-well 96-well plates which contained 50 μL of ice-cold ACN with internal standard to stop the reactions. The plates were stored at −20° C. for 30 minutes, after which 100 μL of water was added to the wells of the plate before centrifugation to pellet precipitated proteins. Supernatants were transferred to another 96-well plate and analyzed for amounts of parent remaining by LC-MS/MS using an Applied Biosystems API 4000 mass spectrometer. […] Data analysis was performed using Microsoft Excel Software. […] The results are shown in FIGS. 2 and 3 and in Table 3, below: […]

in vivo = details: chimpanzee, po
Protocol: Four chimps (two male and two female) were used in this study and were fasted overnight prior to administration of the compound solution. Animals were sedated with ketamine and/or telazol prior to dosing. Intravenous dosing was achieved by IV infusion over 30 minutes.
Approximately 4.5 mL of blood was collected into vacutainer tubes with sodium heparin as an anticoagulant at 0 (preinfusion), 15 min., 29.5 min (immediately before the end of the infusion), and then at 6, 15, 30, and 45 minutes, and 1, 2, 4, 6, 8, 10, 12, 24 hours after the infusion is stopped. A similar procedure was used to collect blood after oral dosing with samples taken at 0 (predose), 15, and 30 minutes, and at 1, 1.5, 2, 4, 6, 8, 10, 12, 24 hours postdose. Following sample collection, the vacutainer tubes were rocked by hand several times to insure adequate mixing. Blood samples were placed immediately on wet ice and centrifuged within 1 hour from time of collection. Following centrifugation, the resulting plasma was stored frozen at −70° C. until analysis. The results are summarized in FIGS. 4 and 5 and tables 6 and 7.
Run B: Same as Run A, except the dose was 150 mg orally of each of atazanavir and compounds 114 and 120, and the vehicle was 10 percent ethanol, 40 percent polypropylglycol in 2.5 percent citric acid.

[2] = human, pH 7.4, human liver microsomes 0.5 mg/mL, 1.0 μM test compound, first run (Table 2), read-out: T1/2 ± SD
[3] = human, pH 7.4, human liver microsomes, repeated assay (Table 3), read-out: t1/2 (min) Avg ± SD (n = 3)

With `COC(=O)N[C@H](C(=O)N[C@@H](Cc1ccccc1)[C@@H](O)CN(Cc1ccc(-c2ccccn2)cc1)NC(=O)[C@@H](NC(=O)OC)C(C)(C)C)C(C)(C)C` [Atazanavir, atazanavir, reference compound] the half-life at 1 μM [1, 2] was 18.6 ± 2.99 min, the half-life at 1 μM [1, 3] was 18.8 ± 0.6 min and the “concentration detected intact in urine” value (in vivo; 24 h) was 3260 ng/mL. The concentration at 24 h (in vivo; concentration detected intact in urine) was 1640 ng/mL.
With `[2H]C([2H])([2H])OC(=O)N[C@H](C(=O)N[C@@H](Cc1ccccc1)[C@@H](O)CN(Cc1ccc(-c2ccccn2)cc1)NC(=O)[C@@H](NC(=O)OC([2H])([2H])[2H])C(C([2H])([2H])[2H])(C([2H])([2H])[2H])C([2H])([2H])[2H])C(C([2H])([2H])[2H])(C([2H])([2H])[2H])C([2H])([2H])[2H]` [Compound 122, 1,14-Di(methyl-d3)(3S,8S,9S,12S)-3,12-bis[(1,1-dimethylethyl)-d9]-8-hydroxy-4,11-dioxo-9-(phenylmethyl)-6-[[4-(2-pyridinyl)phenyl]methyl]-2,5,6,10,13-pentaazatetradecanedioate] the “half-life as compared to atazanavir” value ([1]; human liver microsomes, first run) was “increased half-life”, the “increase in half-life as compared to atazanavir” value ([1]; human, 1 μM, pH 7.4) was roughly 67% and the half-life at 1 μM [1, 2] was 35.4 ± 1.68 min. The half-life at 1 μM [1, 3] was 28.3 ± 0.3 min.
